Like-named read-outs stand apart in the source and are kept apart here.
How the values were obtained:
MIAPaCa tumor = test: Animal studies with ^14C-MTHF, distribution of radioactivity; assay type: in vivo; details: nude mice with MIAPaCa tumor; after one hour
normal cells = test: Washout of label from cells / retention; assay type: cell-based, human
Procedure: (§1) Washout of label from cells—After labeling cells grown in four plates as described before, one culture plate was processed and total incorporation was measure by liquid scintillation counter (LSC). This uptake was regarded as 100%. From the remaining three culture plates, medium was removed, cells were washed twice with cold PBS and then normal growth medium (5 mL) was added at 37° for 30 min. The radiotracer released in the medium after 30 min was counted by LSC in triplicate, and cells were replenished with fresh 5 mL medium for next 30 min washing. The release of radiotracer was followed up to 120 min. Measurement of cell growth rate-The cells were seeded at a density of 4×10^4 cells/cm^2 in each of four 6-cm (20 cm^2) plates containing 5 mL medium and placed in incubator maintained at the conditions described above. Once the cells were in log-phase (48 h post plating), two plates were processed to count the total cells. The average number of cells from these plates was regarded as pl. After next 24 h, the remaining two plates were processed, and the total cells were counted again (p2). The doubling time was then calculated by using formula
(§2) To examine the release of radioactivity from these cells, the ^14C-MTHF-loaded cells (after 2 hours uptake) were placed in fresh complete medium containing an excess of unlabeled folate at 37° C. The medium was replaced after every 30 min and the radiotracer released in the medium was measured by LSC. […] In case of cancerous cell lines, the release of the radiotracer was not more than 20%. After 30 min, the release of the radioactivity in the medium was slow and reached to the background value after two successive washings. After washing, the label retained in each cell line was determined and plotted in FIG. 6.

cancerous cell lines [1] = test: Washout of label from cells / retention; assay type: cell-based, human
Procedure: as §1, §2

cells [2] = test: Cell cycle analysis, aphidicolin-treated cells; assay type: cell-based; details: cells treated with aphidicolin
Procedure: (§3) Cell cycle analysis—Cells in log phase at the same confluency used for uptake experiments or growth inhibited cells by aphidicolin treatment were harvested using trypsin and washed twice with cold PBS. The cells were suspended as 1×10^6/ml density in PBS and fixed with 70% ethanol at −20° C. The DNA content of the cells was stained with 1 mL of staining buffer containing propidium iodide (5 μg/ml), RNAse A (1 mg/ml), glucose (1 mg/ml) in PBS. The stained cells were filtered through 70 μm nylon strainer and then analyzed for DNA content on FASCan flow-cytometer (Becton Dickinson) using Flo-Jo software.
(§4) Cell cycle vs. MTHF uptake. Biosynthesis of DNA and its precursor bases increases during S-phase of the cell cycle. […] Unsynchronized cells, as used for labeling, were alcohol-fixed and the DNA stained with propidium iodide (PI). DNA content can be used as a proxy for determining cell cycle stage. The DNA content was then analyzed by FACSCAN flow cytometer and data were processed by using Facscaliber software. […] Alternatively, when the cells were treated with aphidicolin, an inhibitor of DNA polymerase-α, the proliferation index is reduced up to 4-fold. […] In another experiment, we treated cells with a chemotherapeutic agent (methotrexate) for 24 h and then incubated with ^14C-MTHF for 1 h and observed a 90-95% decline in uptake relative to cells not treated with methotrexate.

MCF-7 [3] = test: Cell cycle analysis (propidium iodide, flow cytometry); assay type: cell-based, human; details: aphidicolin-arrested cells
Procedure: as §3, §4

HT-29 [4] = test: as above; assay type: cell-based, human; details: aphidicolin-arrested cells
Procedure: as §3, §4

MCF-10A [5] = test: as above; assay type: cell-based, human; details: aphidicolin-arrested cells
Procedure: as §3, §4

hTERT-HME1 [6] = test: as above; assay type: cell-based, human; details: aphidicolin-arrested cells
Procedure: as §3, §4

MDA-MB231 [7] = test: as above; assay type: cell-based, human; details: aphidicolin-arrested cells
Procedure: as §3, §4

HMEC [8] = test: as above; assay type: cell-based, human; details: aphidicolin-arrested cells
Procedure: as §3, §4

FHC [9] = test: as above; assay type: cell-based, human; details: aphidicolin-arrested cells
Procedure: as §3, §4

[10] = system: MIAPaCa, PANC1, H292, A549, SQ20B, Cal 27 and Fadu; test: Uptake and retention in cancer cell lines (Example 3); assay type: cell-based
Procedure: Additional studies were performed as described above using the following cell lines:
Pancreatic cancer - MIAPaCa and PANC1
Head and Neck cancer—SQ20B, Cal 27 and Fadu

cells [11] = test: ^14C-MTHF uptake after methotrexate treatment; assay type: cell-based; details: methotrexate 24 h, then ^14C-MTHF 1 h
hTERT-HME1 [12] = system: hTERT-HME1
MDA-MB231 [13] = system: MDA-MB231
FHC [14] = system: FHC
HMEC [15] = system: HMEC
cancerous cell lines [16] = system: cancerous cell lines
HT-29 [17] = system: HT-29
MCF-7 [18] = system: MCF-7
[19] = Procedure: Stability of MTHF in culture medium—Folate-free RPMI 1640 (Invitrogen), fortified with 10% Fetal bovine serum (FBS, Sigma, qualified) (1 mL) in an eppendorf tube (1.5 mL) was spiked with MTHF (10 nM-100 μM) containing ˜0.05 μCi (˜1×10^5 DPM) of ^14C-MTHF as a radiotracer, and incubated under normal culture conditions (see below) for 0, 5, 30, 60, and 120 min. […] The mixture was incubated at 30° C. for 15 min and then filtered through 10K MWCO filter to remove protein. A 100 μl filtrate was analyzed by HPLC to determine the amount of dTMP formed from MTHF. A zorbax column (4.6 mm×15 cm) was eluted with a gradient of 2% to 5% methanol in 100 mM potassium phosphate, pH 6 over 2 min. The isocratic elution at this composition was conducted for 3 min and then changed linearly to 50% methanol in next 5 min. The system was held at this composition for next 5 min, and then increased up to 95% methanol to clean the column. Under these conditions, dUMP was eluted at 3.2 min, dTMP eluted at 5.8 min and MTHF/DHF eluted at 16 min. Identification and quantitation of dTMP was accomplished by comparing the retention time and area under peak of the standard solutions of dTMP.
Stability of MTHF in culture medium—The stability of MTHF might limit its pharmaceutical use. […] The inventors therefore measured the stability of MTHF in culture medium. Concentrations of MTHF ranging from 10 nM to 100 μM, containing a fixed amount of radiotracer (C-14) were incubated in culture medium, under the conditions used for cell incorporation experiments. MTHF remaining in the medium at different time points was measured by quantitatively converting dUMP +^14C-MTHF to ^14C-dTMP by the ecTSase-catalyzed reaction. The amount of ^14C-dTMP formed was then analyzed by HPLC connected with radioactive flow detector (FIG. 2). Data were fitted to a single exponential decay. The analytical assay in which ^14C-MTHF is quantitatively converted to ^14C-dTMP was developed, tested, and used in many of our kinetic isotope effect measurements while studying TSase.

MCF-10A [20] = system: MCF-10A
[21] = first 30 min incubation in fresh medium after 2 hours uptake
[22] = normal growing cells, 20 μM MTHF with ^14C tracer

**Q.** Which distribution of radioactivity/cell (MIAPaCa tumor) does the source give for `Nc1nc2c(c(=O)[nH]1)N1[14CH2]N(c3ccc(C(=O)N[C@@H](CCC(=O)O)C(=O)O)cc3)C[C@H]1CN2` [^14C-MTHF, [11-^14C]—(R)—N^5,N^10-methylene-5,6,7,8-tetrahydrofolate] here?
**A.** most of the radioactivity/cell was in the tumor and kidney

**Q.** What about the release of radiotracer (normal cells; [21]) of the same compound?
**A.** > 50%

**Q.** And the “label retained after washing (FIG. 6)” value (normal cells; non-cancer counterparts, successive 30 min washes, 2 h)?
**A.** retained a much lower, near-background amount of label

**Q.** What about the “label retained after washing (FIG. 6)” value (cancerous cell lines [1]; MDA-MB231, MCF7, hTERT, HT29, successive 30 min washes, 2 h) of the same compound?
**A.** retained the highest amount of tracer

**Q.** What about the release of radiotracer (cancerous cell lines [1]; [21]) of the same compound?
**A.** not more than 20%

**Q.** With `C[C@@]1(CO)[C@H](O)CC[C@@]2(C)[C@H]1CC[C@H]1C[C@@H]3C[C@@]12CC[C@]3(O)CO` [aphidicolin] as the compound, how does the “reduction of proliferation index” value (cells [2]) read?
**A.** up to 4 fold

**Q.** What about the “Proliferation index (S + G2M)” value (MCF-7 [3]) of the same compound?
**A.** 5%

**Q.** And the “Proliferation index (S + G2M)” value (HT-29 [4])?
**A.** 6%

**Q.** And the “Proliferation index (S + G2M)” value (MCF-10A [5])?
**A.** 3%

**Q.** What about the “Proliferation index (S + G2M)” value (hTERT-HME1 [6]) of the same compound?
**A.** 6%

**Q.** What about the “Proliferation index (S + G2M)” value (MDA-MB231 [7]) of the same compound?
**A.** 6%

**Q.** And the “Proliferation index (S + G2M)” value (HMEC [8])?
**A.** 4%

**Q.** And the “Proliferation index (S + G2M)” value (FHC [9])?
**A.** 3%

**Q.** Which “effect of methotrexate on tracer uptake” value ([10]; small dose of MTX) does the source give for `CN(Cc1cnc2nc(N)nc(N)c2n1)c1ccc(C(=O)N[C@@H](CCC(=O)O)C(=O)O)cc1` [methotrexate, reference compound] here?
**A.** uptake enhancement

**Q.** And the “decline in ^14C-MTHF uptake relative to untreated cells” value (cells [11])?
**A.** 90-95%

**Q.** What does the source list for “(R)—N^5,N^10-methylene-5,6,7,8-tetrahydrofolate [MTHF]”?
**A.** MTHF uptake (hTERT-HME1 [12]; aphidicolin-arrested cells): 5.74 ×10^−3/10^6 cells; MTHF uptake (hTERT-HME1 [12]; [22]): 67.3 ×10^−3/10^6 cells; MTHF uptake (MDA-MB231 [13]; aphidicolin-arrested cells): 3.45 ×10^−3/10^6 cells; MTHF uptake (MDA-MB231 [13]; [22]): 81.3 ×10^−3/10^6 cells; uptake in FHC cells (FIG. 4) (FHC [14]; 20 μM MTHF): not higher than background; MTHF uptake (FHC [14]; aphidicolin-arrested cells): 0.54 ×10^−3/10^6 cells; MTHF uptake (FHC [14]; [22]): 0.94 ×10^−3/10^6 cells; MTHF uptake (HMEC [15]; aphidicolin-arrested cells): 1.23 ×10^−3/10^6 cells; MTHF uptake (HMEC [15]; [22]): 5.98 ×10^−3/10^6 cells; label uptake, cancerous versus non-cancerous control cell lines (cancerous cell lines [16]; HEMC-hTERT, MCF7 and MDA-MB231 versus HMEC, MCF10A, 20 μM MTHF): more than 3 fold; time at which uptake of label reached a maximum level (cancerous cell lines [16]; cancerous cell lines, steady state): 60 min; MTHF uptake (HT-29 [17]; aphidicolin-arrested cells): 3.82 ×10^−3/10^6 cells; uptake, HT29 versus normal FHC cells (HT-29 [17]; colon cancer HT29 versus FHC, 20 μM MTHF): at least 30 times; MTHF uptake (HT-29 [17]; [22]): 48.9 ×10^−3/10^6 cells; MTHF uptake (MCF-7 [18]; aphidicolin-arrested cells): 4.92 ×10^−3/10^6 cells; MTHF uptake (MCF-7 [18]; [22]): 80.0 ×10^−3/10^6 cells; uptake and retention of the radioactivity ([10]; pancreatic, lung, head and neck cancer cell lines): good uptake and retention; rate of decomposition kdec ([19]; 10 nM MTHF in culture medium): 0.0727 min⁻¹; half-life ([19]; 20 μM MTHF in culture medium): 78 min; rate of decomposition kdec ([19]; 100 μM MTHF in culture medium): 0.00194 min⁻¹; stability of MTHF (time) ([19]; 100 μM MTHF in culture medium): up to 330 min; MTHF uptake (MCF-10A [20]; aphidicolin-arrested cells): 2.34 ×10^−3/10^6 cells; MTHF uptake (MCF-10A [20]; [22]): 7.79 ×10^−3/10^6 cells
